Common to all, as to type: biochemical
One test concerns the target T1, human Lck enzyme (Homo sapiens, UniProt P06239).
T1 construct: purchased Carna Biosciences, Inc. 08-170
The test can be described thus: Lck enzyme inhibitory activity (time-resolved fluorometry, biotinylated peptide phosphorylation). Particulars: read-out: LCK_IC50. A digest of the protocol:
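Readout pairs a europium cryptate-labelled anti-phosphotyrosine antibody with XL665-streptavidin, measured by time-resolved fluorescence. IC50 derived from percent inhibition against untreated controls.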

The target of a further test is T2, human Yes1 enzyme (Homo sapiens, UniProt P07947).
T2 construct: made in house
The test can be described thus: Yes1 enzyme inhibitory activity (time-resolved fluorometry, biotinylated peptide phosphorylation). Particulars: read-out: YES_IC50. Summed up:
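Inhibition was expressed against a compound-free control to give IC50, using TR-FRET read-out (Eu-cryptate anti-pTyr antibody, streptavidin-XL665).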

The next test has as its target T3, human Src enzyme (Homo sapiens, UniProt P12931).
T3 construct: purchased Carna Biosciences, Inc. 08-173
The test can be described thus: Src enzyme inhibitory activity (time-resolved fluorometry, biotinylated peptide phosphorylation). Particulars: read-out: SRC_IC50. Summed up: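 Compounds were tested for blocking tyrosine phosphorylation of a biotinylated peptide substrate by recombinant human Src. Phosphorylated product was quantified by time-resolved fluorometry using europium cryptate and XL665 conjugates, and IC50 was calculated against the compound-free control.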

The mark [1] stands for this setting: biotinylated peptide phosphorylation.

Consider 20 compounds from US10479780B2, “Aminopyrazole derivatives” (Chugai Seiyaku Kabushiki Kaisha, priority 2015, dated 2019).

Where two headings read alike, the source gives them in different places.

T3 sequence (P12931 whole entry): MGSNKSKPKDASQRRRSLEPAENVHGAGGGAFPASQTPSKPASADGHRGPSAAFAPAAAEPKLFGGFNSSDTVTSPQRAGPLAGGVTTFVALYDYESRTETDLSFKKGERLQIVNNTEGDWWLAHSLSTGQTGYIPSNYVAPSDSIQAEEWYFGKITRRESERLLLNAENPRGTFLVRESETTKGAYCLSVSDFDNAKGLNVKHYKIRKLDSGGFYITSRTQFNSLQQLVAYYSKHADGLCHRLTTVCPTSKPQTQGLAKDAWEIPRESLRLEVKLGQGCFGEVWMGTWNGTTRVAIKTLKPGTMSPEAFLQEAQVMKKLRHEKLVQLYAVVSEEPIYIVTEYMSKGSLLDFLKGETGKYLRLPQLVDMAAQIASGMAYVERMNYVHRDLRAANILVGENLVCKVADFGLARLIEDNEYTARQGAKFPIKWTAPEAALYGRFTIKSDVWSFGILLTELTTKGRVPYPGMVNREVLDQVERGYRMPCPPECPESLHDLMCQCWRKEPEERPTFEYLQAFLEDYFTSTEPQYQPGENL
T1 sequence (P06239 whole entry): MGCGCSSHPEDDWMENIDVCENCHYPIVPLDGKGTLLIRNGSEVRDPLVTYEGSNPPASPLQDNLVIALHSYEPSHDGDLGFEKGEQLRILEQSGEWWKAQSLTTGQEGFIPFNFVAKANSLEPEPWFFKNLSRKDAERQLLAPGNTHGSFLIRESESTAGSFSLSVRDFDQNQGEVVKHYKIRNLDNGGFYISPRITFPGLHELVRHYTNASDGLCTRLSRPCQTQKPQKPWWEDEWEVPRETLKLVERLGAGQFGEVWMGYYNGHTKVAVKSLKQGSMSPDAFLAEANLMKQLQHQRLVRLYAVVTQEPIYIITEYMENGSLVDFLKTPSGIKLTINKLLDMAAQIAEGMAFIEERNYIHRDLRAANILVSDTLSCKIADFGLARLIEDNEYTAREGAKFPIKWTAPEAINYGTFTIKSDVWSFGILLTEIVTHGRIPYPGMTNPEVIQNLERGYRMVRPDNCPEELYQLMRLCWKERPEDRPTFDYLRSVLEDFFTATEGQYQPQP
T2 sequence (P07947 whole entry): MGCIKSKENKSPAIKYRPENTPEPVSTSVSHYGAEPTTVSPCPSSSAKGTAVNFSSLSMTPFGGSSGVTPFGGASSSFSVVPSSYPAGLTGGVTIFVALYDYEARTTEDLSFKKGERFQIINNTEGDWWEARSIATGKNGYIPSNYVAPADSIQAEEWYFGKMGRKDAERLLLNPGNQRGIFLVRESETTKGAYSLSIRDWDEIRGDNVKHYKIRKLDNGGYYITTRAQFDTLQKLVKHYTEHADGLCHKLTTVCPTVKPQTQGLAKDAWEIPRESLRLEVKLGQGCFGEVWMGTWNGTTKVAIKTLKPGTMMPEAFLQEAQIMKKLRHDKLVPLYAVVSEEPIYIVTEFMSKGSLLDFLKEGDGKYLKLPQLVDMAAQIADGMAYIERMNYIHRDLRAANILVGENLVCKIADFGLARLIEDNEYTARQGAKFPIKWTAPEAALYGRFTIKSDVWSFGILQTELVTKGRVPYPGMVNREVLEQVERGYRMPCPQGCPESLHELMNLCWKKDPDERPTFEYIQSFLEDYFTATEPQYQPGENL

As to `Cc1cc(Oc2c(F)cccc2F)ncc1-n1ncc(C(=O)c2cc3cc(OC4CCN(C(C)C)CC4)c(F)cc3[nH]2)c1N` [Example 5-1-204, [5-amino-1-[6-(2,6-difluorophenoxy)-4-methylpyridin-3-yl]pyrazol-4-yl]-[6-fluoro-5-(1-propan-2-ylpiperidin-4-yl)oxy-1H-indol-2-yl] methanone], the IC50 at human Lck enzyme came out at 6.7 nM; on human Yes1 enzyme, 0.5 nM; on human Src enzyme it was 10 nM.

For the compound `Cc1cc(-n2ncc(C(=O)c3cc4cc(OCC(F)F)c(C5CCN(S(C)(=O)=O)CC5)cc4[nH]3)c2N)ccc1Oc1ccccc1F` [Example 5-1-217, [5-amino-1-[4-(2-fluorophenoxy)-3-methylphenyl]pyrazol-4-yl]-[5-(2,2-difluoroethoxy)-6-(1-methylsulfonylpiperidin-4-yl)-1H-indol-2-yl]methanone], the IC50 at human Lck enzyme is 48 nM; at human Yes1 enzyme, 1.4 nM; on human Src enzyme, 150 nM.

On to `Cc1cc(Oc2cc(F)ccc2F)cc(F)c1-n1ncc(C(=O)c2cc3cc(NS(C)(=O)=O)c(F)cc3[nH]2)c1N` [Example 4-2-101, N-[2-[5-amino-1-[4-(2,5-difluorophenoxy)-2-fluoro-6-methylphenyl]pyrazole-4-carbonyl]-6-fluoro-1H-indol-5-yl]methanesulfonamide], for which the figures for the IC50 at human Lck enzyme (setting [1]), at human Yes1 enzyme (setting [1]) and on human Src enzyme (setting [1]) were 2.9 nM, 0.74 nM and 50 nM, respectively.

On to `Cc1cc(Oc2ccccc2F)ccc1-n1ncc(C(=O)c2cc3cc(F)c(NS(=O)(=O)c4cccc(Cl)c4)cc3[nH]2)c1N` [Example 5-1-558, N-[2-[5-amino-1-[4-(2-fluorophenoxy)-2-methylphenyl]pyrazole-4-carbonyl]-5-fluoro-1H-indol-6-yl]-3-chlorobenzenesulfonamide], for which the IC50 came out at 230 nM on human Lck enzyme (setting [1]), 4.9 nM at human Yes1 enzyme (setting [1]) and 1500 nM on human Src enzyme (setting [1]).

As to `COc1cc2cc(C(=O)c3cnn(-c4cnc(Oc5c(F)cccc5F)cc4C)c3N)[nH]c2cc1NS(=O)(=O)C1CC1` [Example 4-24-035, N-[2-[5-amino-1-[6-(2,6-difluorophenoxy)-4-methylpyridin-3-yl]pyrazole-4-carbonyl]-5-methoxy-1H-indol-6-yl]cyclopropanesulfonamide], the IC50 on human Lck enzyme (setting [1]) turned out to be 5 nM; on human Yes1 enzyme (setting [1]), 1.2 nM; at human Src enzyme (setting [1]), 47 nM.

As to `Cc1cc(Oc2ccccc2F)ccc1-n1ncc(C(=O)c2cc3cc(OCC(F)F)c(N4C(=O)NC5(CCN(Cc6ccccc6)C5)C4=O)cc3[nH]2)c1N` (stereo not drawn) [Example 5-1-355, 3-[2-[5-amino-1-[4-(2-fluorophenoxy)-2-methylphenyl]pyrazole-4-carbonyl]-5-(2,2-difluoroethoxy)-1H-indol-6-yl]-7-benzyl-1,3,7-triazaspiro[4.4]nonane-2,4-dione], the IC50 on human Lck enzyme is 13 nM; on human Yes1 enzyme, 8 nM; at human Src enzyme, 97 nM.

Turning to `Cc1cc(Oc2ccccc2F)ccc1-n1ncc(C(=O)c2cc3cc(F)c(NS(=O)(=O)NC(C)(C)CO)cc3[nH]2)c1N` [Example 4-6-003, [5-amino-1-[4-(2-fluorophenoxy)-2-methylphenyl]pyrazol-4-yl]-[5-fluoro-6-[(1-hydroxy-2-methylpropan-2-yl)sulfamoylamino]-1H-indol-2-yl]methanone], the IC50 was 22 nM on human Lck enzyme (setting [1]), 2.3 nM on human Yes1 enzyme (setting [1]) and 88 nM on human Src enzyme (setting [1]).

Turning to `Cc1cc(-n2ncc(C(=O)c3cc4cc(C)c(C5CCN(C(C)C)CC5)cc4[nH]3)c2N)ccc1Oc1ccccc1F` [Example 5-1-012, [5-amino-1-[4-(2-fluorophenoxy)-3-methylphenyl]pyrazol-4-yl]-[5-methyl-6-(1-propan-2-ylpiperidin-4-yl)-1H-indd-2-yl] methanone], the IC50 at human Lck enzyme came out at 23 nM; at human Yes1 enzyme, 2.5 nM; at human Src enzyme it was 310 nM.

Regarding `Cc1cc(Oc2ccccc2F)ccc1-n1ncc(C(=O)c2cc3cc(N4CCOCC4)c(N4C(=O)C(C)(C)NC4=S)cc3[nH]2)c1N` [Example 5-1-120, 3-[2-[5-amino-1-[4-(2-fluorophenoxy)-2-methylphenyl]pyrazole-4-carbonyl]-5-morpholin-4-yl-1H-indol-6-yl]-5,5-dimethyl-2-sulfanylideneimidazolidin-4-one], the IC50 on human Lck enzyme turned out to be 6.1 nM; at human Yes1 enzyme, 0.43 nM; at human Src enzyme it was 23 nM.

Turning to `Cc1cc(Oc2ccccc2F)ccc1-n1ncc(C(=O)c2cc3cc(F)c(NC4CN(S(C)(=O)=O)C4)cc3[nH]2)c1N` [Example 5-1-118], the IC50 stood at 2.7 nM at human Lck enzyme, 0.85 nM on human Yes1 enzyme and 11 nM on human Src enzyme.

For `COc1cc2cc(C(=O)c3cnn(-c4cnc(Oc5ccccc5F)cc4C)c3N)[nH]c2cc1NS(C)(=O)=O` [Example 4-1-008, N-[2-[5-amino-1-[6-(2-fluorophenoxy)-4-methylpyridin-3-yl]pyrazole-4-carbonyl]-5-methoxy-1H-indol-6-yl]methanesulfonamide], the IC50 on human Lck enzyme (setting [1]) worked out at 4 nM; at human Yes1 enzyme (setting [1]), 0.69 nM; at human Src enzyme (setting [1]) it was 52 nM.

As to `Cc1cc2cc(C(=O)c3cnn(-c4ccc(Oc5ccccc5F)cc4C)c3N)[nH]c2cc1N1C(=O)NC2(CCN(C3COC3)C2)C1=O` (stereo not drawn) [Example 5-1-393, 3-[2-[5-amino-1-[4-(2-fluorophenoxy)-2-methylphenyl]pyrazole-4-carbonyl]-5-methyl-1H-indol-6-yl]-7-(oxetan-3-yl)-1,3,7-triazaspiro [4.4]nonane-2,4-dione], the IC50 on human Lck enzyme came to 4.6 nM; at human Yes1 enzyme it was 1 nM; on human Src enzyme, 9.8 nM.

With `Cc1cc(Oc2ccccc2F)ccc1-n1ncc(C(=O)c2cc3cc(N4CCOCC4)c(NC4CCN(S(C)(=O)=O)CC4)cc3[nH]2)c1N` [Example 5-1-129, [5-amino-1-[4-(2-fluorophenoxy)-2-methylphenyl]pyrazol-4-yl]-[6-[(1-methylsulfonylpiperidin-4-yl)amino]-5-morpholin-4-yl-1H-indol-2-yl]methanone], the IC50 on human Lck enzyme was 4.6 nM; at human Yes1 enzyme it was 0.61 nM; on human Src enzyme, 7.3 nM.

Consider `Cc1cc(Oc2c(F)cccc2F)ncc1-n1ncc(C(=O)c2cc3cc(OCC(F)F)c(NS(=O)(=O)c4cccc(C#N)n4)cc3[nH]2)c1N` [Example 5-1-574, N-[2-[5-amino-1-[6-(2,6-difluorophenoxy)-4-methylpyridin-3-yl]pyrazole-4-carbonyl]-5-(2,2-difluoroethoxy)-1H-indol-6-yl]-6-cyanopyridine-2-sulfonamide], for which the IC50 on human Lck enzyme (setting [1]) amounted to 13 nM; at human Yes1 enzyme (setting [1]), 2.8 nM; at human Src enzyme (setting [1]), 540 nM.

As to `Cc1cc(Oc2ccccc2F)ncc1-n1ncc(C(=O)c2cc3cc(F)c(NS(=O)(=O)CCCF)cc3[nH]2)c1N` [Example 4-2-020, N-[2-[5-amino-1-[6-(2-fluorophenoxy)-4-methylpyridin-3-yl]pyrazole-4-carbonyl]-5-fluoro-1H-indol-6-yl]-3-fluoropropane-1-sulfonamide], the IC50 on human Lck enzyme (setting [1]) was determined as 11 nM; at human Yes1 enzyme (setting [1]), 2 nM; on human Src enzyme (setting [1]), 59 nM.

As to `Cc1cc(Oc2ccccc2F)ccc1-n1ncc(C(=O)c2cc3cc(N4CCOCC4)c(N4CCOCC4)cc3[nH]2)c1N` [Example 5-1-094, [5-amino-1-[4-(2-fluorophenoxy)-2-methylphenyl]pyrazol-4-yl]-(5,6-dimorpholin-4-yl-1H-indol-2-yl)methanone], the figures for the IC50 at human Lck enzyme, on human Yes1 enzyme and on human Src enzyme were 4.1 nM, 2.9 nM and 19 nM, respectively.

With `Cc1cc(Oc2ccccc2F)ccc1-n1ncc(C(=O)c2cc3cc(N4CCOCC4)c(Br)cc3[nH]2)c1N` [Example 5-1-147, [5-amino-1-[4-(2-fluorophenoxy)-2-methylphenyl]pyrazol-4-yl]-(6-bromo-5-morpholin-4-yl-1H-indol-2-yl)methanone], the values for the IC50 on human Lck enzyme, at human Yes1 enzyme and at human Src enzyme were 12 nM, 0.57 nM and 5.1 nM, respectively.

Take `Cc1cc2cc(C(=O)c3cnn(-c4cnc(Oc5c(F)cccc5F)cc4C)c3N)[nH]c2cc1NS(=O)(=O)c1cccc(C#N)c1` [Example 5-1-555, N-[2-[5-amino-1-[6-(2,6-difluorophenoxy)-4-methylpyridin-3-yl]pyrazole-4-carbonyl]-5-methyl-1H-indol-6-yl]-3-cyanobenzenesulfonamide]: the IC50 on human Lck enzyme (setting [1]) came out at 150 nM; on human Yes1 enzyme (setting [1]), 14 nM; on human Src enzyme (setting [1]) it was 1200 nM.

On to `Cc1cc(Oc2c(F)cccc2F)ncc1-n1ncc(C(=O)c2cc3cc(OCC(F)F)c(N4C(=O)N[C@]5(CCNC5)C4=O)cc3[nH]2)c1N` [Example 5-1-348, (5S)-3-[2-[5-amino-1-[6-(2,6-difluorophenoxy)-4-methylpyridin-3-yl]pyrazole-4-carbonyl]-5-(2,2-difluoroethoxy)-1H-indol-6-yl]-1,3,7-triazaspiro[4.4]nonane-2,4-dione], for which the IC50 on human Lck enzyme worked out at 2 nM; at human Yes1 enzyme, 0.8 nM; at human Src enzyme it was 13 nM.

Regarding `Cc1cc(Oc2c(F)cccc2F)ncc1-n1ncc(C(=O)c2cc3cc(OCC(F)F)c(N4C(=O)NC5(CCN(C6COC6)CC5)C4=O)cc3[nH]2)c1N` [Example 5-1-350, 3-[2-[5-amino-1-[6-(2,6-difluorophenoxy)-4-methylpyridin-3-yl]pyrazole-4-carbonyl]-5-(2,2-difluoroethoxy)-1H-indol-6-yl]-8-(oxetan-3-yl)-1,3,8-triazaspiro[4.5]decane-2,4-dione], the IC50 at human Lck enzyme was 3.3 nM; on human Yes1 enzyme, 0.88 nM; at human Src enzyme, 13 nM.
